Six compounds from patent publication US20230391845A1, “GLP-1, GIP AND GLUCAGON RECEPTOR TRIPLE AGONISTS” (priority 2020, published 2023) can be followed below.

*1 amine or outer side, *2 acyl side, *3 side chain or, on linkers, in order; H or OH if unused. Where a SMILES comes first, the peptide text is derived from it. Side-chain parts run from the residue outwards. [ ]: non-standard residue; d: D form. The star is where a group is joined. C20 diacid = O=C(O)CCCCCCCCCCCCCCCCCCC(=O)*; C18 diacid = O=C(O)CCCCCCCCCCCCCCCCC(=O)*; γGlu = O=C(O)[C@H](CCC(=O)[*:2])N[*:1]; εLys = N[C@@H](CCCCN[*:1])C(=O)[*:2]; AEEA = NCCOCCOCC(=O)O; Aib = CC(C)(N)C(=O)O

As usually defined, the EC50 is the concentration giving half of the maximal effect.

Experiment [1] has as its target T1, human GLP-1 receptor (Homo sapiens, UniProt P43220).
T1 construct: expressed in transfected cells; host or cells: BHK cells (parent line BHKTS13) containing CRE luciferase
Description: In vitro functional potency (CRE luciferase; whole cells), human GLP-1R. The class given is cell-based. As to conditions: BHK CRE luc2P hGLP-1R whole cells; Table 2; read-out: hGLP-1R CRE Luc EC50.
Description: The purpose of this example is to test the functional activity, or potency, of the compounds in vitro at the human and mouse GLP-1, GIP, and Gcg receptors. The in vitro functional potency is the measure of target receptor activation in a whole cell assay.
In vitro functional potency was determined by measuring the response of the target receptor in a reporter gene assay in individual cell lines. The assay was performed in stably transfected BHK cell lines that expresses one of the following G-protein coupled receptors: human GLP-1 receptor, human GIP receptor, human Gcg receptor, mouse GLP-1 receptor, mouse GIP receptor, or mouse Gcg receptor; and where each cell line contains the DNA for the cAMP response element (CRE) coupled to a promoter and the gene for firefly luciferase (CRE luciferase). When the respective receptor is activated, it results in the production of cAMP, which in turn results in expression of the luciferase protein. When assay incubation is completed, luciferase substrate (luciferin) is added resulting in the enzymatic conversion of luciferin to oxyluciferin and producing bioluminescence. The luminescence is measured as the readout for the assay.
The cells lines used in these assays were BHK cells with BHKTS13 as a parent cell line. The cell lines were derived from a clone containing the CRE luciferase element and were established by further transfection with the respective receptor to obtain the relevant cell line.
The cells were cultured at 37° C. with 5% CO2 in Cell Culture Medium. They were aliquoted and stored in liquid nitrogen. The cells were kept in continuous culture and were seeded out the day before each assay.
GLP-1R and GcgR Cell Culture Medium consisted of DMEM medium with 10% FBS, 500 µg/mL G418, and 300 µg/mL hygromycin. GIPR Cell Culture Medium consisted of DMEM medium with 10% FBS, 400 µg/mL G418, and 300 µg/mL hygromycin. Assay Buffer consisted of DMEM w/o phenol red, 10 mM Hepes, 1× Glutamax, 1% ovalbumin, and 0.1% Pluronic F-68.
• 1) Cells were plated at 5000 cells/well and incubated overnight in the assay plate. • 2) Cells were washed once in DPBS. • 3) Stocks of the test compounds and reference compounds in concentrations ranging from 100-300 pM were diluted 1:150 in Assay Buffer.
The data from the microtiter plate reader was first regressed in an Excel in order to calculate the x-axis, log scale concentrations based on the individual test compound's stock concentration and the dilutions of the assay. […] The software performs a non-linear regression (log(agonist) vs response). A minimum of two replicates was measured for each sample. The reported values are averages of the replicates.

Experiment [2] has as its target T2, human GIP receptor (Homo sapiens, UniProt P48546).
T2 construct: expressed in transfected cells; host or cells: BHK cells (parent line BHKTS13) containing CRE luciferase
T2 sequence (P48546 22-466): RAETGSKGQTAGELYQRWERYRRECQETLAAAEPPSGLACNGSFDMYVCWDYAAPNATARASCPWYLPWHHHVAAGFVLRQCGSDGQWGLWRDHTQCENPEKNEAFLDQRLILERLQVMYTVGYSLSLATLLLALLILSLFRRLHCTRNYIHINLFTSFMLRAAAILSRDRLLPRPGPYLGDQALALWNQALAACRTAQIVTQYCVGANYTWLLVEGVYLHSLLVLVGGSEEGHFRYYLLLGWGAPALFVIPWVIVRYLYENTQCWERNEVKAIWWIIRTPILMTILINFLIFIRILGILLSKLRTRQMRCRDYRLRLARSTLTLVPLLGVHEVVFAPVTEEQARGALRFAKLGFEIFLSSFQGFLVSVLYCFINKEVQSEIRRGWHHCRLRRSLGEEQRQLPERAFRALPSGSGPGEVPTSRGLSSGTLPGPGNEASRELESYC
Briefly: In vitro functional potency (CRE luciferase; whole cells), human GIPR. The class given is cell-based. The note with it: BHK CRE luc2P hGIPR whole cells; Table 2; read-out: hGIPR CRE Luc EC50.

T1 sequence (P43220 24-463): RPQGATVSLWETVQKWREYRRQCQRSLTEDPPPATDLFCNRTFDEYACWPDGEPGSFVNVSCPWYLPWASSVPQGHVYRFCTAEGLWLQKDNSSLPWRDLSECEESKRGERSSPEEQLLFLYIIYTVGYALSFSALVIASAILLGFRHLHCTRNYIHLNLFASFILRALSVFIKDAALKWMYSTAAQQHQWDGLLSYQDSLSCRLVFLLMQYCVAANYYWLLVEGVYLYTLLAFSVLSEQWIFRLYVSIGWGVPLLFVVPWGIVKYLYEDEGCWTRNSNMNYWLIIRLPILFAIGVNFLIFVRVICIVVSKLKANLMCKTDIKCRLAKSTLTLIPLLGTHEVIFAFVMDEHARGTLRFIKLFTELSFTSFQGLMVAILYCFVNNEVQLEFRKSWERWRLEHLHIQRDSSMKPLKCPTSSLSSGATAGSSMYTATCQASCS

On to `CC[C@H](C)[C@H](NC(=O)[C@H](CO)NC(=O)[C@H](Cc1ccc(O)cc1)NC(=O)[C@H](CC(=O)O)NC(=O)[C@H](CO)NC(=O)[C@@H](NC(=O)[C@H](Cc1ccccc1)NC(=O)[C@@H](NC(=O)CNC(=O)[C@H](CCC(N)=O)NC(=O)C(C)(C)NC(=O)[C@@H](N)Cc1ccc(O)cc1)[C@@H](C)O)[C@@H](C)O)C(=O)N[C@@H](Cc1ccc(O)cc1)C(=O)N[C@@H](CC(C)C)C(=O)N[C@@H](CCC(=O)O)C(=O)N[C@@H](CCCCNC(=O)COCCOCCNC(=O)COCCOCCNC(=O)CC[C@H](NC(=O)CCCCCCCCCCCCCCCCCCC(=O)O)C(=O)O)C(=O)N[C@@H](CCC(N)=O)C(=O)N[C@@H](C)C(=O)N[C@@H](C)C(=O)NC(C)(C)C(=O)N[C@@H](CCC(=O)O)C(=O)N[C@@H](Cc1ccccc1)C(=O)N[C@H](C(=O)N[C@@H](CC(N)=O)C(=O)N[C@@H](Cc1c[nH]c2ccccc12)C(=O)N[C@@H](CC(C)C)C(=O)N[C@@H](CC(C)C)C(=O)N[C@@H](C)C(=O)NCC(=O)NCC(=O)N1CCC[C@H]1C(=O)N[C@@H](CO)C(=O)N[C@@H](CO)C(=O)NCC(=O)N[C@@H](C)C(=O)N1CCC[C@H]1C(=O)N1CCC[C@H]1C(=O)N1CCC[C@H]1C(=O)N[C@@H](CO)C(N)=O)C(C)C` [Compound No. 15] (H-Y[Aib]QGTFTSDYSIYLEK([AEEA-AEEA-γGlu-C20 diacid])QAA[Aib]EFVNWLLAGGPSSGAPPPS-NH2), for which the EC50 in experiment [1] was determined as 1.4 pM; in experiment [2], 4.8 pM. For `CC[C@H](C)[C@H](NC(=O)[C@H](CO)NC(=O)[C@H](Cc1ccc(O)cc1)NC(=O)[C@H](CC(=O)O)NC(=O)[C@H](CO)NC(=O)[C@@H](NC(=O)[C@H](Cc1ccccc1)NC(=O)[C@@H](NC(=O)CNC(=O)[C@H](Cc1c[nH]cn1)NC(=O)C(C)(C)NC(=O)[C@@H](N)Cc1c[nH]cn1)[C@@H](C)O)[C@@H](C)O)C(=O)N[C@@H](CC(C)C)C(=O)N[C@@H](CC(C)C)C(=O)N[C@@H](CCC(=O)O)C(=O)N[C@@H](CCCCNC(=O)COCCOCCNC(=O)COCCOCCNC(=O)CC[C@H](NC(=O)CCCCCCCCCCCCCCCCCCC(=O)O)C(=O)O)C(=O)N[C@@H](CCC(N)=O)C(=O)N[C@@H](C)C(=O)N[C@@H](C)C(=O)NC(C)(C)C(=O)N[C@@H](CCC(=O)O)C(=O)N[C@@H](Cc1ccccc1)C(=O)N[C@H](C(=O)N[C@@H](CCC(N)=O)C(=O)N[C@@H](Cc1c[nH]c2ccccc12)C(=O)N[C@@H](CC(C)C)C(=O)N[C@@H](CC(C)C)C(=O)N[C@@H](CCC(=O)O)C(=O)NCC(=O)NCC(=O)N1CCC[C@H]1C(=O)N[C@@H](CO)C(=O)N[C@@H](CO)C(=O)NCC(=O)N[C@@H](C)C(=O)N1CCC[C@H]1C(=O)N1CCC[C@H]1C(=O)N1CCC[C@H]1C(=O)N[C@@H](CO)C(N)=O)C(C)C` [Compound No. 45] (H-H[Aib]HGTFTSDYSILLEK([AEEA-AEEA-γGlu-C20 diacid])QAA[Aib]EFVQWLLEGGPSSGAPPPS-NH2; N-terminus assumed), in that order: 2.4 pM and 1.9 pM. Take `CC[C@H](C)[C@H](NC(=O)[C@H](CO)NC(=O)[C@H](Cc1ccc(O)cc1)NC(=O)[C@H](CC(=O)O)NC(=O)[C@H](CO)NC(=O)[C@@H](NC(=O)[C@H](Cc1ccccc1)NC(=O)[C@@H](NC(=O)CNC(=O)[C@H](Cc1c[nH]cn1)NC(=O)C(C)(C)NC(=O)[C@@H](N)Cc1c[nH]cn1)[C@@H](C)O)[C@@H](C)O)C(=O)N[C@@H](CC(C)C)C(=O)N[C@@H](CC(C)C)C(=O)N[C@@H](CCC(=O)O)C(=O)N[C@@H](CCCCNC(=O)[C@@H](N)CCCCNC(=O)[C@@H](N)CCCCNC(=O)CC[C@H](NC(=O)CCCCCCCCCCCCCCCCCCC(=O)O)C(=O)O)C(=O)N[C@@H](CCC(N)=O)C(=O)N[C@@H](C)C(=O)N[C@@H](C)C(=O)N[C@@H](CCC(=O)O)C(=O)N[C@@H](CCC(=O)O)C(=O)N[C@@H](Cc1ccccc1)C(=O)N[C@H](C(=O)N[C@@H](CCC(N)=O)C(=O)N[C@@H](Cc1c[nH]c2ccccc12)C(=O)N[C@@H](CC(C)C)C(=O)N[C@@H](CC(C)C)C(=O)N[C@@H](CCC(=O)O)C(=O)NCC(=O)NCC(=O)N1CCC[C@H]1C(=O)N[C@@H](CO)C(=O)N[C@@H](CO)C(=O)NCC(=O)N[C@@H](C)C(=O)N1CCC[C@H]1C(=O)N1CCC[C@H]1C(=O)N1CCC[C@H]1C(=O)N[C@@H](CO)C(=O)O)C(C)C` [Compound No. 50] (H-H[Aib]HGTFTSDYSILLEK([εLys-εLys-γGlu-C20 diacid])QAAEEFVQWLLEGGPSSGAPPPS-OH): in experiment [2], the 50% effective concentration (EC50) was 1.9 pM. The same measure, in the same setting: the result for `CC[C@H](C)[C@H](NC(=O)[C@H](CO)NC(=O)[C@H](Cc1ccc(O)cc1)NC(=O)[C@H](CC(=O)O)NC(=O)[C@H](CO)NC(=O)[C@@H](NC(=O)[C@H](Cc1ccccc1)NC(=O)[C@@H](NC(=O)CNC(=O)[C@H](Cc1c[nH]cn1)NC(=O)C(C)(C)NC(=O)[C@@H](N)Cc1c[nH]cn1)[C@@H](C)O)[C@@H](C)O)C(=O)N[C@@H](CC(C)C)C(=O)N[C@@H](CC(C)C)C(=O)N[C@@H](CCC(=O)O)C(=O)N[C@@H](CCCCNC(=O)[C@@H](N)CCCCNC(=O)[C@@H](N)CCCCNC(=O)CC[C@H](NC(=O)CCCCCCCCCCCCCCCCC(=O)O)C(=O)O)C(=O)N[C@@H](CCC(N)=O)C(=O)N[C@@H](C)C(=O)N[C@@H](C)C(=O)N[C@@H](CCC(=O)O)C(=O)N[C@@H](CCC(=O)O)C(=O)N[C@@H](Cc1ccccc1)C(=O)N[C@H](C(=O)N[C@@H](CCC(N)=O)C(=O)N[C@@H](Cc1c[nH]c2ccccc12)C(=O)N[C@@H](CC(C)C)C(=O)N[C@@H](CC(C)C)C(=O)N[C@@H](CCC(=O)O)C(=O)NCC(=O)NCC(=O)N1CCC[C@H]1C(=O)N[C@@H](CO)C(=O)N[C@@H](CO)C(=O)NCC(=O)N[C@@H](C)C(=O)N1CCC[C@H]1C(=O)N1CCC[C@H]1C(=O)N1CCC[C@H]1C(=O)N[C@@H](CO)C(=O)O)C(C)C` [Compound No. 51] (H-H[Aib]HGTFTSDYSILLEK([εLys-εLys-γGlu-C18 diacid])QAAEEFVQWLLEGGPSSGAPPPS-OH) reads 1.8 pM; that for `CC[C@H](C)[C@H](NC(=O)[C@H](CO)NC(=O)[C@H](Cc1ccc(O)cc1)NC(=O)[C@H](CC(=O)O)NC(=O)[C@H](CO)NC(=O)[C@@H](NC(=O)[C@H](Cc1ccccc1)NC(=O)[C@@H](NC(=O)CNC(=O)[C@H](Cc1c[nH]cn1)NC(=O)C(C)(C)NC(=O)[C@@H](N)Cc1c[nH]cn1)[C@@H](C)O)[C@@H](C)O)C(=O)N[C@@H](Cc1ccc(O)cc1)C(=O)N[C@@H](CC(C)C)C(=O)N[C@@H](CC(=O)O)C(=O)N[C@@H](CCCCNC(=O)[C@@H](N)CCCCNC(=O)[C@@H](N)CCCCNC(=O)CC[C@H](NC(=O)CCCCCCCCCCCCCCCCCCC(=O)O)C(=O)O)C(=O)N[C@@H](CCC(N)=O)C(=O)N[C@@H](C)C(=O)N[C@@H](C)C(=O)NC(C)(C)C(=O)N[C@@H](CCC(=O)O)C(=O)N[C@@H](Cc1ccccc1)C(=O)N[C@H](C(=O)N[C@@H](CCC(N)=O)C(=O)N[C@@H](Cc1c[nH]c2ccccc12)C(=O)N[C@@H](CC(C)C)C(=O)N[C@@H](CC(C)C)C(=O)N[C@@H](CCC(=O)O)C(=O)NCC(=O)NCC(=O)N1CCC[C@H]1C(=O)N[C@@H](CO)C(=O)N[C@@H](CO)C(=O)NCC(=O)N[C@@H](C)C(=O)N1CCC[C@H]1C(=O)N1CCC[C@H]1C(=O)N1CCC[C@H]1C(=O)N[C@@H](CO)C(N)=O)C(C)C` [Compound No. 28] (H-H[Aib]HGTFTSDYSIYLDK([εLys-εLys-γGlu-C20 diacid])QAA[Aib]EFVQWLLEGGPSSGAPPPS-NH2), 7.7 pM.

For `CC[C@H](C)[C@H](NC(=O)[C@H](CO)NC(=O)[C@H](Cc1ccc(O)cc1)NC(=O)[C@H](CC(=O)O)NC(=O)[C@H](CO)NC(=O)[C@@H](NC(=O)[C@H](Cc1ccccc1)NC(=O)[C@@H](NC(=O)CNC(=O)[C@H](Cc1c[nH]cn1)NC(=O)C(C)(C)NC(=O)[C@@H](N)Cc1ccc(O)cc1)[C@@H](C)O)[C@@H](C)O)C(=O)N[C@@H](Cc1ccc(O)cc1)C(=O)N[C@@H](CC(C)C)C(=O)N[C@@H](CCC(=O)O)C(=O)N[C@@H](CCCCNC(=O)[C@@H](N)CCCCNC(=O)[C@@H](N)CCCCNC(=O)CC[C@H](NC(=O)CCCCCCCCCCCCCCCCCCC(=O)O)C(=O)O)C(=O)N[C@@H](CCC(N)=O)C(=O)N[C@@H](C)C(=O)N[C@@H](C)C(=O)NC(C)(C)C(=O)N[C@@H](CCC(=O)O)C(=O)N[C@@H](Cc1ccccc1)C(=O)N[C@H](C(=O)N[C@@H](CCC(N)=O)C(=O)N[C@@H](Cc1c[nH]c2ccccc12)C(=O)N[C@@H](CC(C)C)C(=O)N[C@@H](CC(C)C)C(=O)N[C@@H](CCC(=O)O)C(=O)NCC(=O)NCC(=O)N1CCC[C@H]1C(=O)N[C@@H](CO)C(=O)N[C@@H](CO)C(=O)NCC(=O)N[C@@H](C)C(=O)N1CCC[C@H]1C(=O)N1CCC[C@H]1C(=O)N1CCC[C@H]1C(=O)N[C@@H](CO)C(N)=O)C(C)C` [Compound No. 18] (H-Y[Aib]HGTFTSDYSIYLEK([εLys-εLys-γGlu-C20 diacid])QAA[Aib]EFVQWLLEGGPSSGAPPPS-NH2), the EC50 in experiment [2] is 7.1 pM.
